Results published in patent publication US20250188069A1, “COMPOUNDS AND METHODS FOR DEGRADING CASEIN KINASE 1 ALPHA” (PIN THERAPEUTICS, INC., priority 2022, published 2025).
pIC50: −log10 of the molar value.

What was measured:
MV-4-11 cells = experiment: AML cell viability assay (RealTime-Glo); format: cell-based; settings: Homo sapiens, MV4-11; IC50 class; MV-4-11 cells, RealTime-Glo after 44 hrs of treatment (TABLE 5); read-out: Cell viability classification
CK1α = CK1α (Homo sapiens, UniProt P48729+Q96SW2); experiment: CK1α HiBiT assay in CK1a_HiBiT_Jurkat cells; format: cell-based; settings: DC50 class, 16 hours, Nano-Glo HiBiT Lytic Detection, read-out: CK1α degradation classification
Procedure: CK1a_HiBiT_Jurkat cells were culture in RPMI 1640 medium (Gibco, 11875093) with 10% FBS under standard tissue culture conditions. Briefly, Compounds of the present disclosure was added to 30,000 cells in a white 96-well plate (9-point dose response, top concentration […], half-log serial dilution, final DMSO concentration 0.5%) and incubated for 16 hours. CK1a level was determined in along with the Nano-Glo HiBiT Lytic Detection system [Promega N3050] with final concentration of 1 x. The luminescence was normalized to that of DMSO-treated samples. DC50 values were obtained using three-parameter non-linear regressions using Prism (GraphPad). The compounds are classified based on DC50 values as follows. • A: DC50 is less than or equal to 1×10^−7; • B: DC50 is greater than 1×10^−7 & less than or equal to 1×10^−6; • C: DC50 is greater than 1×10^−6; • NA: not calculated (no activity detected, <25% viability reduction at 1 uM)

CK1α, sequence (P48729 whole entry): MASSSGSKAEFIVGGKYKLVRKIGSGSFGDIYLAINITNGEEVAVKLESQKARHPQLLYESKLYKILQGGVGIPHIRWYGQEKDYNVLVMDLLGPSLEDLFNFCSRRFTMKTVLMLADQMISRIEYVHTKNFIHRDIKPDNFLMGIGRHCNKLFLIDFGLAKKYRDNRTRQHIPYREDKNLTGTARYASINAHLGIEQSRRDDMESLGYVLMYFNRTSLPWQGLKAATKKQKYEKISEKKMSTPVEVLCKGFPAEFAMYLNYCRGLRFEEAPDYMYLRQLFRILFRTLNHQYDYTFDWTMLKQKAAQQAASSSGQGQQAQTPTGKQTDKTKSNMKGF
CK1α, sequence (Q96SW2 whole entry): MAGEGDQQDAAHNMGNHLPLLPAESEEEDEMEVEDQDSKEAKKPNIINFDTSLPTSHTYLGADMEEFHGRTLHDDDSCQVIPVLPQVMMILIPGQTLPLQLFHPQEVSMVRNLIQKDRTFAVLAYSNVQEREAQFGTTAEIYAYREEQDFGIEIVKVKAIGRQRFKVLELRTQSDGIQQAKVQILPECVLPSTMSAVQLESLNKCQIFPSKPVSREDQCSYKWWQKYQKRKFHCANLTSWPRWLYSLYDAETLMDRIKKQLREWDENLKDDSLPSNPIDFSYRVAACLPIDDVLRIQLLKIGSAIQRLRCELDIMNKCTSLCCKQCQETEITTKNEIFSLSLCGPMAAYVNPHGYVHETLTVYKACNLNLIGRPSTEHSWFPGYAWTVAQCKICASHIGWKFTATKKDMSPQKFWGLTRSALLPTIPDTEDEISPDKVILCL
CK1α, sequence (Q16531 whole entry partner): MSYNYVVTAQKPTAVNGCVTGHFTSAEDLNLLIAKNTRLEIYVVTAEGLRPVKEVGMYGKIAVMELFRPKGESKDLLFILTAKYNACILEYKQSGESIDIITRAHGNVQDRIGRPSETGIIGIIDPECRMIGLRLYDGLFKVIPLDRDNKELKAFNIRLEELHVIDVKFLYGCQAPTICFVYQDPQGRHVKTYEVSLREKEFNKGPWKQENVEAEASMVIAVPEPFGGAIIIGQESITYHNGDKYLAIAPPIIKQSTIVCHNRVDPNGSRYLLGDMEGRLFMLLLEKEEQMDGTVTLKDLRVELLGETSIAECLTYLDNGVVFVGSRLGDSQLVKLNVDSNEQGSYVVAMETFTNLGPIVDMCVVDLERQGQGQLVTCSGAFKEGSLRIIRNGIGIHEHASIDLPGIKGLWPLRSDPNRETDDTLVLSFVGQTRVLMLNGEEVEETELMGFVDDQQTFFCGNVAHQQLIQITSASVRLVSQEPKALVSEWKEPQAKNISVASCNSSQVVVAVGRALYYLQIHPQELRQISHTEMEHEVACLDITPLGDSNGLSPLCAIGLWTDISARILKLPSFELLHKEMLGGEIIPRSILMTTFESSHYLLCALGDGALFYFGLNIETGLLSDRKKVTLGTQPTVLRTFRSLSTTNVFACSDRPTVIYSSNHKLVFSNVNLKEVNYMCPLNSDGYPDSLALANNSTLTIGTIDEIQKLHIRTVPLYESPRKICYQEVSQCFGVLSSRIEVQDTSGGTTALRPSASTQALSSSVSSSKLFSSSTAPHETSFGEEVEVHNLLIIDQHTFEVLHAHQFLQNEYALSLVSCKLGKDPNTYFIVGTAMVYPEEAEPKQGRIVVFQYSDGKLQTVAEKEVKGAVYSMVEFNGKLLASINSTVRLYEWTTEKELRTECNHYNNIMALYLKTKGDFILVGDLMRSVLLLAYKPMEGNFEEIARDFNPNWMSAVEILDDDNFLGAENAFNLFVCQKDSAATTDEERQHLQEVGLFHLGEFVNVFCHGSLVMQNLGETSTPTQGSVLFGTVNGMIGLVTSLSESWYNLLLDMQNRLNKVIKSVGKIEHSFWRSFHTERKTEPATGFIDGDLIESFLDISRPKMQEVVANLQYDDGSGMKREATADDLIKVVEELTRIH

Structure (SMILES)	pIC50 (MV-4-11 cells)	DC50 (CK1α)
O=C1CCC(N2Cc3c(cccc3N(CCC3CC3)[C@H]3CC[C@H](NCCC(F)F)CC3)C2=O)C(=O)N1 (some centres unmarked) [Compound 643, 3-{4-[(2-cyclopropylethyl)[(1r,4r)-4-[(3,3-difluoropropyl)amino]cyclohexyl]amino]-1-oxo-3H-isoindol-2-yl}piperidine-2,6-dione; trifluoroacetic acid]	> 7.00	≤ 100 nM
O=C1CCC(N2Cc3c(cccc3N(CCC3CC3)[C@H]3CC[C@H](NC45CC(C(F)(F)F)(C4)C5)CC3)C2=O)C(=O)N1 (some centres unmarked) [Compound 646, 3-{4-[(2-cyclopropylethyl)[(1r,4r)-4-{[3-(trifluoromethyl)bicyclo[1.1.1]pentan-1-yl]amino}cyclohexyl]amino]-1-oxo-3H-isoindol-2-yl}piperidine-2,6-dione; trifluoroacetic acid]	6.00 to 7.00	≤ 100 nM
O=C1CCC(N2Cc3c(cccc3N(CC3CC(F)(F)C3)[C@H]3CC[C@H](NCCC(F)(F)F)CC3)C2=O)C(=O)N1 (some centres unmarked) [Compound 650, 3-(4-{[(3,3-difluorocyclobutyl)methyl][(1r,4r)-4-[(3,3,3-trifluoropropyl)amino]cyclohexyl]amino}-1-oxo-3H-isoindol-2-yl)piperidine-2,6-dione]	6.00 to 7.00	≤ 100 nM
O=C1CCC(N2Cc3c(cccc3N(CC3CC4(CCC4)C3)[C@H]3CC[C@H](NCCC(F)(F)F)CC3)C2=O)C(=O)N1 (some centres unmarked) [Compound 651, 3-(1-oxo-4-{[(1r,4r)-4-[(3,3,3-trifluoropropyl)amino]cyclohexyl]({spiro[3.3]heptan-2-ylmethyl})amino}-3H-isoindol-2-yl)piperidine-2,6-dione; trifluoroacetic acid]	< 6.00	≤ 100 nM
CC1(C)CC(CN(c2cccc3c2CN(C2CCC(=O)NC2=O)C3=O)[C@H]2CC[C@H](NCCC(F)(F)F)CC2)C1 (some centres unmarked) [Compound 652, 3-(4-{[(3,3-dimethylcyclobutyl)methyl][(1r,4r)-4-[(3,3,3-trifluoropropyl)amino]cyclohexyl]amino}-1-oxo-3H-isoindol-2-yl)piperidine-2,6-dione; bis(trifluoroacetic acid)]	< 6.00	≤ 100 nM
O=C1CCC(N2Cc3c(cccc3N(CC3CC(F)(F)C3)[C@H]3CC[C@H](NCC4(C(F)(F)F)CC4)CC3)C2=O)C(=O)N1 (some centres unmarked) [Compound 655, 3-(4-{[(3,3-difluorocyclobutyl)methyl][(1r,4r)-4-({[1-(trifluoromethyl)cyclopropyl]methyl}amino)cyclohexyl]amino}-1-oxo-3H-isoindol-2-yl)piperidine-2,6-dione]	< 6.00	100 to 1000 nM
O=C1CCC(N2Cc3c(cccc3N(CC3CC4(CCC4)C3)[C@H]3CC[C@H](NCC4(C(F)(F)F)CC4)CC3)C2=O)C(=O)N1 (some centres unmarked) [Compound 656, 3-(1-oxo-4-{[(1r,4r)-4-({[1-(trifluoromethyl)cyclopropyl]methyl}amino)cyclohexyl]({spiro[3.3]heptan-2-ylmethyl})amino}-3H-isoindol-2-yl)piperidine-2,6-dione; trifluoroacetic acid]	6.00 to 7.00	100 to 1000 nM
CC1(C)CC(CN(c2cccc3c2CN(C2CCC(=O)NC2=O)C3=O)[C@H]2CC[C@H](NCC3(C(F)(F)F)CC3)CC2)C1 (some centres unmarked) [Compound 657, 3-(4-{[(3,3-dimethylcyclobutyl)methyl][(1r,4r)-4-({[1-(trifluoromethyl)cyclopropyl]methyl}amino)cyclohexyl]amino}-1-oxo-3H-isoindol-2-yl)piperidine-2,6-dione; bis(trifluoroacetic acid)]	< 6.00	100 to 1000 nM
O=C1CCC(N2Cc3c(cc(F)cc3N(CCC3CC3)[C@H]3CC[C@H](NCC4(C(F)(F)F)CC4)CC3)C2=O)C(=O)N1 (some centres unmarked) [Compound 658, 3-{4-[(2-cyclopropylethyl)[(1r,4r)-4-({[1-(trifluoromethyl)cyclopropyl]methyl}amino)cyclohexyl]amino]-6-fluoro-1-oxo-3H-isoindol-2-yl}piperidine-2,6-dione]	6.00 to 7.00	≤ 100 nM
O=C1CCC(N2Cc3c(cc(F)cc3N(CCC3CC3)[C@H]3CC[C@@H](NCC4(C(F)(F)F)CC4)CC3)C2=O)C(=O)N1 (some centres unmarked) [Compound 658A, 3-{4-[(2-cyclopropylethyl)[(1s,4s)-4-({[1-(trifluoromethyl)cyclopropyl]methyl}amino)cyclohexyl]amino]-6-fluoro-1-oxo-3H-isoindol-2-yl}piperidine-2,6-dione]	< 6.00	100 to 1000 nM
NC(=O)C12CC(N(CCC3CC3)c3cccc4c3CN(C3CCC(=O)NC3=O)C4=O)(C1)C2 (centres unmarked) [Compound 659, 3-[(2-cyclopropylethyl)[2-(2,6-dioxopiperidin-3-yl)-1-oxo-3H-isoindol-4-yl]amino]bicyclo[1.1.1]pentane-1-carboxamide]	6.00 to 7.00	≤ 100 nM
NCC12CC(N(CCC3CC3)c3cccc4c3CN(C3CCC(=O)NC3=O)C4=O)(C1)C2 (centres unmarked) [Compound 660, 3-(4-{[3-(aminomethyl)bicyclo[1.1.1]pentan-1-yl](2-cyclopropylethyl)amino}-1-oxo-3H-isoindol-2-yl)piperidine-2,6-dione]	6.00 to 7.00	≤ 100 nM
O=C1CCC(N2Cc3c(cccc3N(CCC3CC3)[C@H]3CC[C@H](NCc4ncco4)CC3)C2=O)C(=O)N1 (some centres unmarked) [Compound 662]	6.00 to 7.00	≤ 100 nM
O=C1CCC(N2Cc3c(cccc3N(CCC3CC3)[C@H]3CC[C@H](NCc4nccs4)CC3)C2=O)C(=O)N1 (some centres unmarked) [Compound 663, 3-{4-[(2-cyclopropylethyl)[(1r,4r)-4-[(1,3-thiazol-2-ylmethyl)amino]cyclohexyl]amino]-1-oxo-3H-isoindol-2-yl}piperidine-2,6-dione]	6.00 to 7.00	≤ 100 nM
O=C1CCC(N2Cc3c(cccc3N(CCC3CC3)[C@H]3CC[C@H](NCc4ccc(C(F)(F)F)cn4)CC3)C2=O)C(=O)N1 (some centres unmarked) [Compound 664, 3-{4-[(2-cyclopropylethyl)[(1r,4r)-4-({[5-(trifluoromethyl)pyridin-2-yl]methyl}amino)cyclohexyl]amino]-1-oxo-3H-isoindol-2-yl}piperidine-2,6-dione formic acid]	6.00 to 7.00	≤ 100 nM
O=C1CCC(N2Cc3c(cccc3N(CCC3CC3)[C@H]3CC[C@H](NCc4ccccn4)CC3)C2=O)C(=O)N1 (some centres unmarked) [Compound 665, 3-{4-[(2-cyclopropylethyl)[(1r,4r)-4-[(pyridin-2-ylmethyl)amino]cyclohexyl]amino]-1-oxo-3H-isoindol-2-yl}piperidine-2,6-dione; formic acid]	6.00 to 7.00	≤ 100 nM
O=C1CCC(N2Cc3c(cccc3N(CCC3CC3)[C@H]3CC[C@H](NCC4CCCO4)CC3)C2=O)C(=O)N1 (some centres unmarked) [Compound 666, 3-{4-[(2-cyclopropylethyl)[(1r,4r)-4-[(oxolan-2-ylmethyl)amino]cyclohexyl]amino]-1-oxo-3H-isoindol-2-yl}piperidine-2,6-dione]	> 7.00	≤ 100 nM
CN(C)[C@H]1CC[C@H](N(CCC2CC2)c2cccc3c2CN(C2CCC(=O)NC2=O)C3=O)CC1 (some centres unmarked) [Compound 668, 3-{4-[(2-cyclopropylethyl)[(1r,4r)-4-(dimethylamino)cyclohexyl]amino]-1-oxo-3H-isoindol-2-yl}piperidine-2,6-dione]	> 7.00	≤ 100 nM
O=C1CCC(N2Cc3c(cccc3N(CCC3CC3)[C@H]3CC[C@H](N4CCCC4)CC3)C2=O)C(=O)N1 (some centres unmarked) [Compound 669]	6.00 to 7.00	≤ 100 nM
O=C1CCC(N2Cc3c(cccc3N(CCC3CC3)[C@H]3CC[C@H](N4CCC(F)(F)C4)CC3)C2=O)C(=O)N1 (some centres unmarked) [Compound 670]	6.00 to 7.00	≤ 100 nM
O=C1CCC(N2Cc3c(cccc3N(CCC3CC3)[C@H]3CC[C@H](N4CCC(F)C4)CC3)C2=O)C(=O)N1 (some centres unmarked) [Compound 671, 3-{4-[(2-cyclopropylethyl)[(1r,4r)-4-(3-fluoropyrrolidin-1-yl)cyclohexyl]amino]-1-oxo-3H-isoindol-2-yl}piperidine-2,6-dione]	6.00 to 7.00	≤ 100 nM
O=C1CCC(N2Cc3c(cccc3N(CCC3CC3)[C@H]3CC[C@H](N4CCC(C(F)(F)F)C4)CC3)C2=O)C(=O)N1 (some centres unmarked) [Compound 672, 3-{4-[(2-cyclopropylethyl)[(1r,4r)-4-[3-(trifluoromethyl)pyrrolidin-1-yl]cyclohexyl]amino]-1-oxo-3H-isoindol-2-yl}piperidine-2,6-dione; trifluoroacetic acid]	6.00 to 7.00	≤ 100 nM
O=C1CCC(N2Cc3c(cccc3N(CCC3CC3)[C@H]3CC[C@H](N4CC(C(F)(F)F)C4)CC3)C2=O)C(=O)N1 (some centres unmarked) [Compound 673]	< 6.00	≤ 100 nM
O=C1CCC(N2Cc3c(cccc3N(CCC3CC3)[C@H]3CC[C@H](N4CCOCC4)CC3)C2=O)C(=O)N1 (some centres unmarked) [Compound 674, 3-{4-[(2-cyclopropylethyl)[(1r,4r)-4-(morpholin-4-yl)cyclohexyl]amino]-1-oxo-3H-isoindol-2-yl}piperidine-2,6-dione]	> 7.00	≤ 100 nM
O=C1CCC(N2Cc3c(cccc3N(CCC3CC3)[C@H]3CC[C@H](N[C@H]4CC[C@@H]4C(F)(F)F)CC3)C2=O)C(=O)N1 (stereo partly drawn) [Compound 675, 3-{4-[(2-cyclopropylethyl)[(1r,4r)-4-{[(1S,2S)-2-(trifluoromethyl)cyclobutyl]amino}cyclohexyl]amino]-1-oxo-3H-isoindol-2-yl}piperidine-2,6-dione; bis(trifluoroacetic acid)]	6.00 to 7.00	≤ 100 nM
